In PubChem BioAssay AID2060506 (Molecular Pharmacology Branch, DTP, NCI, 2025):

Test system: 598228-144-R-J1-PDC complex spheroid viability
Test: Anticancer human tumor 598228-144-R-J1-PDC patient-derived serous endometrial adenocarcinoma cell line growth inhibition [GQUAD]
Details: for IC50: curve of first compound; for viability, T/C: stronger effect = lower value; active = viability on the fitted dose curve at most 10% of control; inactive = the rest
Method in brief: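 Tumor cells were grown as complex spheroids with HUVEC endothelial cells and mesenchymal stem cells as stroma. G-quadruplex stabilizers were combined with targeted agents over half-log dilutions from near the clinical Cmax, or from 10 microM.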

[1] = second compound 0.0316 µM, first compound 0.0316 µM
[2] = second compound 0.0316 µM, first compound 0.1 µM
[3] = second compound 0.0316 µM, first compound 0.316 µM
[4] = second compound 0.0316 µM, first compound 1 µM
[5] = second compound 0.0316 µM, first compound 3.16 µM
[6] = second compound 0.0316 µM, first compound 10 µM
[7] = second compound 0.1 µM, first compound 0.0316 µM
[8] = second compound 0.1 µM, first compound 0.1 µM
[9] = second compound 0.1 µM, first compound 0.316 µM
[10] = second compound 0.1 µM, first compound 1 µM
[11] = second compound 0.1 µM, first compound 3.16 µM
[12] = second compound 0.1 µM, first compound 10 µM
[13] = second compound 0.316 µM, first compound 0.0316 µM
[14] = second compound 0.316 µM, first compound 0.1 µM
[15] = second compound 0.316 µM, first compound 0.316 µM
[16] = second compound 0.316 µM, first compound 1 µM
[17] = second compound 0.316 µM, first compound 3.16 µM
[18] = second compound 0.316 µM, first compound 10 µM
[19] = second compound 1 µM, first compound 0.0316 µM
[20] = second compound 1 µM, first compound 0.1 µM
[21] = second compound 1 µM, first compound 0.316 µM
[22] = second compound 1 µM, first compound 1 µM
[23] = second compound 1 µM, first compound 3.16 µM
[24] = second compound 1 µM, first compound 10 µM
[25] = second compound 3.16 µM, first compound 0.0316 µM
[26] = second compound 3.16 µM, first compound 0.1 µM
[27] = second compound 3.16 µM, first compound 0.316 µM
[28] = second compound 3.16 µM, first compound 1 µM
[29] = second compound 3.16 µM, first compound 3.16 µM
[30] = second compound 3.16 µM, first compound 10 µM
[31] = second compound 10 µM, first compound 0.0316 µM
[32] = second compound 10 µM, first compound 0.1 µM
[33] = second compound 10 µM, first compound 0.316 µM
[34] = second compound 10 µM, first compound 1 µM
[35] = second compound 10 µM, first compound 3.16 µM
[36] = second compound 10 µM, first compound 10 µM
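Note: spheroids exposed to the agents for one week before reading.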
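Throughout, for viability, T/C: percent of vehicle DMSO control viability so 100% = untreated growth.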

COc1cc(C2c3cc4c(cc3C(OC3OC5COC(C)OC5C(O)C3O)C3COC(=O)C23)OCO4)cc(OC)c1O (stereo unspecified) + Cc1cnc(CNC(=O)c2c(=O)c3ccc(N4CCCN(C)CC4)nc3n3c2sc2ccccc23)cn1
inactive: viability, T/C [1] 79.7% | viability, T/C [2] 85.8% | viability, T/C [3] 88.4% | viability, T/C [4] 58.6% | viability, T/C [5] 79.8% | viability, T/C [6] 46.1% | viability, T/C [7] 89.4% | viability, T/C [8] 60.1% | viability, T/C [9] 54.8% | viability, T/C [10] 66.4% | viability, T/C [11] 55.1% | viability, T/C [12] 44.4% | viability, T/C [13] 87.8% | viability, T/C [14] 62% | viability, T/C [15] 64.2% | viability, T/C [16] 72.1% | viability, T/C [17] 67% | viability, T/C [18] 47.8% | viability, T/C [19] 64.2% | viability, T/C [20] 69.9% | viability, T/C [21] 74.7% | viability, T/C [22] 72% | viability, T/C [23] 71.9% | viability, T/C [24] 46.9% | viability, T/C [25] 64.6% | viability, T/C [26] 70.7% | viability, T/C [27] 73.3% | viability, T/C [28] 61.7% | viability, T/C [29] 51.8% | viability, T/C [30] 35% | viability, T/C [31] 57.6% | viability, T/C [32] 45.2% | viability, T/C [33] 52.1% | viability, T/C [34] 47.5% | viability, T/C [35] 43.2% | viability, T/C [36] 9.83%
3.43 µM: IC50 (second compound 3.16 µM)
> 10 µM: IC50 (second compound 0.1 µM) | IC50 (second compound 0.316 µM) | IC50 (second compound 1 µM)
0.765 µM: IC50 (second compound 10 µM)
8.68 µM: IC50 (second compound 0.0316 µM)

Cc1cccc(N(C)C(=O)C2C(O)CCN2c2nc(C)cc(C(F)(F)F)c2C#N)c1 (stereo unspecified) + Cc1cnc(CNC(=O)c2c(=O)c3ccc(N4CCCN(C)CC4)nc3n3c2sc2ccccc23)cn1
inactive: viability, T/C [1] 92.7% | viability, T/C [2] 83.7% | viability, T/C [3] 91% | viability, T/C [4] 99% | viability, T/C [5] 112% | viability, T/C [6] 91.4% | viability, T/C [7] 76.8% | viability, T/C [8] 69.3% | viability, T/C [9] 64.4% | viability, T/C [10] 67.9% | viability, T/C [11] 86.6% | viability, T/C [12] 66.5% | viability, T/C [13] 63.2% | viability, T/C [14] 66.6% | viability, T/C [15] 70.3% | viability, T/C [16] 63.6% | viability, T/C [17] 61.3% | viability, T/C [18] 60.2% | viability, T/C [19] 68.9% | viability, T/C [20] 62.5% | viability, T/C [21] 58.7% | viability, T/C [22] 61.9% | viability, T/C [23] 58.3% | viability, T/C [24] 60.5% | viability, T/C [25] 52.4% | viability, T/C [26] 58.3% | viability, T/C [27] 57.9% | viability, T/C [28] 44.3% | viability, T/C [29] 58.7% | viability, T/C [30] 50.5% | viability, T/C [31] 55.8% | viability, T/C [32] 45.7% | viability, T/C [33] 37.8% | viability, T/C [34] 46% | viability, T/C [35] 66.1% | viability, T/C [36] 36.2%
> 10 µM: IC50 (second compound 0.0316 µM) | IC50 (second compound 0.1 µM) | IC50 (second compound 0.316 µM) | IC50 (second compound 1 µM) | IC50 (second compound 3.16 µM)
< 0.0316 µM: IC50 (second compound 10 µM)

Cn1ncnc1[C@H]1c2n[nH]c(=O)c3cc(F)cc(c23)N[C@@H]1c1ccc(F)cc1 + Cc1cnc(CNC(=O)c2c(=O)c3ccc(N4CCCN(C)CC4)nc3n3c2sc2ccccc23)cn1
0.193 µM: IC50 (second compound 3.16 µM)
0.000999 µM: IC50 (second compound 10 µM)
inactive: viability, T/C (second compound 0.0316 µM, first compound 0.000999 µM) 81.7% | viability, T/C (second compound 0.0316 µM, first compound 0.00316 µM) 94% | viability, T/C (second compound 0.0316 µM, first compound 0.00999 µM) 87.3% | viability, T/C [1] 68.3% | viability, T/C (second compound 0.0316 µM, first compound 0.0999 µM) 74.4% | viability, T/C [3] 54.7% | viability, T/C (second compound 0.1 µM, first compound 0.000999 µM) 79.1% | viability, T/C (second compound 0.1 µM, first compound 0.00316 µM) 70.3% | viability, T/C (second compound 0.1 µM, first compound 0.00999 µM) 61.2% | viability, T/C [7] 56.4% | viability, T/C (second compound 0.1 µM, first compound 0.0999 µM) 60.3% | viability, T/C [9] 63.1% | viability, T/C (second compound 0.316 µM, first compound 0.000999 µM) 66.3% | viability, T/C (second compound 0.316 µM, first compound 0.00316 µM) 76.4% | viability, T/C (second compound 0.316 µM, first compound 0.00999 µM) 56.8% | viability, T/C [13] 55.9% | viability, T/C (second compound 0.316 µM, first compound 0.0999 µM) 59% | viability, T/C [15] 55.1% | viability, T/C (second compound 1 µM, first compound 0.000999 µM) 55.5% | viability, T/C (second compound 1 µM, first compound 0.00316 µM) 54.3% | viability, T/C (second compound 1 µM, first compound 0.00999 µM) 56% | viability, T/C [19] 64.2% | viability, T/C (second compound 1 µM, first compound 0.0999 µM) 59.3% | viability, T/C [21] 64.1% | viability, T/C (second compound 3.16 µM, first compound 0.000999 µM) 57.5% | viability, T/C (second compound 3.16 µM, first compound 0.00316 µM) 53.8% | viability, T/C (second compound 3.16 µM, first compound 0.00999 µM) 52.9% | viability, T/C [25] 58.5% | viability, T/C (second compound 3.16 µM, first compound 0.0999 µM) 57% | viability, T/C [27] 42% | viability, T/C (second compound 10 µM, first compound 0.000999 µM) 40.5% | viability, T/C (second compound 10 µM, first compound 0.00316 µM) 45.7% | viability, T/C (second compound 10 µM, first compound 0.00999 µM) 59.1% | viability, T/C [31] 38.1% | viability, T/C (second compound 10 µM, first compound 0.0999 µM) 51.7% | viability, T/C [33] 32.5%
> 0.316 µM: IC50 (second compound 0.0316 µM) | IC50 (second compound 0.1 µM) | IC50 (second compound 0.316 µM) | IC50 (second compound 1 µM)
